Measurements reported in ChEMBL document CHEMBL3045250 (Med Chem Res, 2005).

These compounds were tested against T1, 5-hydroxytryptamine receptor 6 (Homo sapiens, UniProt P50406) (assay: Binding affinity to 5-HT6 receptor (unknown origin)).
T1 sequence (P50406 whole entry): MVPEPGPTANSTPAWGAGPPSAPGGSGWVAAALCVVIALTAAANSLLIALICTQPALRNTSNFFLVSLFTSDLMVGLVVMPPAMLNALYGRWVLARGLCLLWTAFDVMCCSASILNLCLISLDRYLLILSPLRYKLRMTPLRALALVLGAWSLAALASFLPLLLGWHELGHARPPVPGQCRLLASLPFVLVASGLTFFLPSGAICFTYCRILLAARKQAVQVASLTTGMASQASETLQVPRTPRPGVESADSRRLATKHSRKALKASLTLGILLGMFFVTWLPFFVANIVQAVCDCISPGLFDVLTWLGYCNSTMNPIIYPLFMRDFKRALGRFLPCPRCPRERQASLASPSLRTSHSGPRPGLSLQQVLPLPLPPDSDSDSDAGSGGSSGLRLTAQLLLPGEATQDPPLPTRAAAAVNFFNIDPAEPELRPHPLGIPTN
`CNc1cc(NS(=O)(=O)c2ccc(N)cc2)nc(NC)n1` showed a Ki of 58 nM.

Each compound was assayed against T1, 5-hydroxytryptamine receptor 6 (assay: Displacement of [3H]LSD from Homo sapiens (human) 5-HT6 receptor expressed in Homo sapiens (human) HEK293 cells).
Format: cell-based
In the case of `CN(C)CCc1c[nH]c2ccncc12`, the Ki is reported as 100 nM. `CN(C)CCc1cn(S(=O)(=O)c2ccccc2)c2ccncc12` was tested, and the Ki was 84 nM. Work on `Cc1cn(S(=O)(=O)c2ccc(N)cc2)c2ccncc12` yielded a Ki of 41 nM. With `NCCc1c(-c2ccccc2)[nH]c2ccncc12` the Ki was 2600 nM. In the case of `CN(C)CCc1c(-c2ccccc2)[nH]c2ccncc12`, the Ki is reported as 270 nM. Compound `CCc1[nH]c2ccncc2c1CCN` has a Ki of 4900 nM. `CCc1[nH]c2ccncc2c1CCN(C)C` showed a Ki of 2900 nM. Work on `NCCc1c[nH]c2ccncc12` [5-Azatryptamine] yielded a Ki of 64 nM.
